According to publication PMC10665234, “Nutritional Supplementation and Enhanced Antioxidant Function by Dietary Intake of Selenoneine and Other Selenium Compounds in Red Seabream Pagrus major” (Marine Biotechnology (New York, N.y.), 2023):

What was measured:
Format in all cases: in vivo, red seabream Pagrus major
[1] = Total selenium concentrations in the tissues of red seabream after feeding selenium-supplemented dry pellet (fluorometric assay with 2,3-diamino-naphthalene)
Protocol: (§1) Red seabream fry (average body weight of 5.4 g) was obtained from private seed and seedling production company (Oita, Japan) and cultured for seven months up to average body weight of 250 g. Chemical composition of control diet was containing crude protein 50%; […]; Ca 2.3%; ash 16.0%; and phosphorus 1.5%. Each selenium-added diet was fed twice a day for 4 weeks in an amount of 1% of the average body weight. Body weight of fish in each tank was measured when fish were sampled and amount of diet was calculated according to the body weight of every sampling day. The added selenium concentrations in the diets were set in 0 ppm, 1 ppm, and 2 ppm selenium according to the previous study (Tohfuku et al. [2021]). After that, they were fed a commercial diet twice a day for 1 week. The test groups were the control group, the sodium selenite group (1 mg Se/kg feeding group and 2 mg Se/kg feeding group), the selenomethionine group (1 mg Se/kg feeding group and 2 mg Se/kg feeding group), and the selenoneine group (1 mg Se/kg feeding group and 2 mg Se/kg feeding group) were set. The number of fish raised was 15 from the start of rearing in each tank until the 2nd week, 10 from the 3rd to 4th week, and 5 in the 5th week. […] We reared red seabream by feeding of 1% dry pellet containing of sodium selenite, selenomethionine, or selenoneine of body weight twice a day for 4 weeks. After that, we replaced to 1% of commercial dry pellet of body weight twice a day for 1 week from the selenium supplementation. Average water temperature was 20.9 ℃ (19.0–23.9 ℃) and average dissolved oxygen was 7.41 mg/L. The body weight change of red seabream for 5 weeks is shown in Table S2.
(§2) Red seabream was anesthetized by adding 2 mL of anesthetic (1/100 volume of 2-methylquinoline dissolved in ethanol) to 1 L of seawater. A small amount of an anticoagulant (heparin sodium dissolved in physiological saline; 800 units/mL) was placed in a syringe in advance, and blood was collected from the caudal peduncle of each fish. The collected blood was centrifuged at 5000 rpm for 5 min (4 °C), divided into a plasma fraction and a precipitated fraction, and stored at − 50 °C. The precipitated fraction was used for analysis as the blood cell fraction.
Total selenium concentration was determined by fluorometric assay with 2,3-diamino-naphthalene, after digestion in 1.5 mL of nitric acid and perchloric acid (1:2 in volume) at 200–220 ℃ (Watkinson [1966]; Yamashita and Yamashita [2010]).

[2] = Selenoneine concentration in white muscle and blood cell by HPLC-ICP-MS (82Se); details: fish cultured for 4 weeks
Protocol: as §1, §2
Selenoneine was separated by chromatography using a Shodex GF-310 column (4.5 mm × 150 mm; Showa Denko, Tokyo, Japan) equilibrated with 100 mM ammonium formate buffer containing 0.1% (w/v) Igepal CA-630 (MP Biomedicals, CA, USA). The injection volume was at 10 μL. The mobile phase delivered at 0.5 mL/min isocratically. ^82Se was detected with high performance liquid chromatography inductively coupled plasma mass spectrometry (HPLC-ICP-MS; Agilent 1100 Series and Agilent 7500 Series, Agilent Technology) (Yamashita and Yamashita [2010]). During separation, selenoneine was eluted at a retention time of 200 s, and the selenium concentration was determined using selenoneine as a standard.

red seabream = assay: Oxidation-reduction potential (ORP) in white muscle; details: 2 weeks; 1 or 2 ppm in diet
Protocol: ORP was measured with ORP electrode (9300, Horiba, Kyoto, […]). The electrode was pierced into muscle and pressed gently until the potential stabilized for 60 s.

[3] = 5 weeks (4 weeks supplementation, then 1 week commercial diet), diet 1 mg Se/kg added
[4] = 5 weeks (4 weeks supplementation, then 1 week commercial diet), diet 2 mg Se/kg added

## O=[Se]([O-])[O-].[Na+].[Na+] [Sodium selenite, reference compound]
[1]; 2 weeks, diet 1 mg Se/kg added
  Total selenium content, blood cell: 2.44 ± 0.27 mg Se/kg
  Total selenium content, brain: 0.49 ± 0.03 mg Se/kg
  Total selenium content, heart: 1.05 ± 0.20 mg Se/kg
  Total selenium content, hepatopancreas: 1.12 ± 0.16 mg Se/kg
  Total selenium content, kidney: 2.46 ± 0.31 mg Se/kg
  Total selenium content, spleen: 2.58 ± 0.16 mg Se/kg
  Total selenium content, white muscle: 0.39 ± 0.02 mg Se/kg
[1]; 2 weeks, diet 2 mg Se/kg added
  Total selenium content, blood cell: 2.49 ± 0.29 mg Se/kg
  Total selenium content, brain: 0.50 ± 0.03 mg Se/kg
  Total selenium content, heart: 0.99 ± 0.10 mg Se/kg
  Total selenium content, hepatopancreas: 1.31 ± 0.15 mg Se/kg
  Total selenium content, kidney: 2.50 ± 0.19 mg Se/kg
  Total selenium content, spleen: 2.80 ± 0.25 mg Se/kg
  Total selenium content, white muscle: 0.40 ± 0.02 mg Se/kg
[1]; 4 weeks, diet 1 mg Se/kg added
  Total selenium content, blood cell: 3.11 ± 0.40 mg Se/kg
  Total selenium content, brain: 0.54 ± 0.07 mg Se/kg
  Total selenium content, heart: 1.27 ± 0.11 mg Se/kg
  Total selenium content, hepatopancreas: 1.40 ± 0.19 mg Se/kg
  Total selenium content, kidney: 3.07 ± 0.24 mg Se/kg
  Total selenium content, spleen: 3.09 ± 0.47 mg Se/kg
  Total selenium content, white muscle: 0.39 ± 0.01 mg Se/kg
[1]; 4 weeks, diet 2 mg Se/kg added
  Total selenium content, blood cell: 2.86 ± 0.17 mg Se/kg
  Total selenium content, brain: 0.45 ± 0.10 mg Se/kg
  Total selenium content, heart: 1.22 ± 0.08 mg Se/kg
  Total selenium content, hepatopancreas: 1.45 ± 0.13 mg Se/kg
  Total selenium content, kidney: 3.06 ± 0.34 mg Se/kg
  Total selenium content, spleen: 2.94 ± 0.22 mg Se/kg
  Total selenium content, white muscle: 0.39 ± 0.03 mg Se/kg
[1]; [3]
  Total selenium content, blood cell: 3.18 ± 0.76 mg Se/kg
  Total selenium content, brain: 0.35 ± 0.09 mg Se/kg
  Total selenium content, heart: 1.20 ± 0.09 mg Se/kg
  Total selenium content, hepatopancreas: 1.31 ± 0.23 mg Se/kg
  Total selenium content, kidney: 2.60 ± 0.32 mg Se/kg
  Total selenium content, spleen: 2.80 ± 0.28 mg Se/kg
  Total selenium content, white muscle: 0.38 ± 0.06 mg Se/kg
[1]; [4]
  Total selenium content, blood cell: 3.13 ± 0.48 mg Se/kg
  Total selenium content, brain: 0.33 ± 0.11 mg Se/kg
  Total selenium content, heart: 1.04 ± 0.07 mg Se/kg
  Total selenium content, hepatopancreas: 1.28 ± 0.18 mg Se/kg
  Total selenium content, kidney: 2.71 ± 0.39 mg Se/kg
  Total selenium content, spleen: 2.47 ± 0.35 mg Se/kg
  Total selenium content, white muscle: 0.36 ± 0.05 mg Se/kg
[1]; diet 1 mg Se/kg and 2 mg Se/kg
  Tissues in which total selenium was accumulated compared with the control group: white muscle, kidney, and hepatopancreas
[2]; diet 1 mg Se/kg added
  Selenoneine concentration, blood cell: 1.98 ± 0.39 mg Se/kg
  Selenoneine concentration, white muscle: 0.019 ± 0.002 mg Se/kg
[2]; diet 2 mg Se/kg added
  Selenoneine concentration, blood cell: 1.91 ± 0.43 mg Se/kg
  Selenoneine concentration, white muscle: 0.020 ± 0.003 mg Se/kg
Red seabream
  ORP in white muscle compared to control: reduced ORP

## C[Se]CC[C@H](N)C(=O)O [Selenomethionine, Seleno-L-methionine]
Red seabream
  ORP in white muscle compared to control: reduced ORP
